Laboratory results from ChEMBL document CHEMBL5653631, “A Potent and Selective ULK1 Inhibitor Suppresses Autophagy and Sensitizes Cancer Cells to Nutrient Stress” (iScience, 2018).

Key:
[1] = target: T1, Serine/threonine-protein kinase TAO2 (Homo sapiens) (UniProt Q9UL54); assay: Inhibition of human recombinant TAO2 at 500 nM in presence of ATP by radiometric assay relative to control
T1 sequence (whole entry): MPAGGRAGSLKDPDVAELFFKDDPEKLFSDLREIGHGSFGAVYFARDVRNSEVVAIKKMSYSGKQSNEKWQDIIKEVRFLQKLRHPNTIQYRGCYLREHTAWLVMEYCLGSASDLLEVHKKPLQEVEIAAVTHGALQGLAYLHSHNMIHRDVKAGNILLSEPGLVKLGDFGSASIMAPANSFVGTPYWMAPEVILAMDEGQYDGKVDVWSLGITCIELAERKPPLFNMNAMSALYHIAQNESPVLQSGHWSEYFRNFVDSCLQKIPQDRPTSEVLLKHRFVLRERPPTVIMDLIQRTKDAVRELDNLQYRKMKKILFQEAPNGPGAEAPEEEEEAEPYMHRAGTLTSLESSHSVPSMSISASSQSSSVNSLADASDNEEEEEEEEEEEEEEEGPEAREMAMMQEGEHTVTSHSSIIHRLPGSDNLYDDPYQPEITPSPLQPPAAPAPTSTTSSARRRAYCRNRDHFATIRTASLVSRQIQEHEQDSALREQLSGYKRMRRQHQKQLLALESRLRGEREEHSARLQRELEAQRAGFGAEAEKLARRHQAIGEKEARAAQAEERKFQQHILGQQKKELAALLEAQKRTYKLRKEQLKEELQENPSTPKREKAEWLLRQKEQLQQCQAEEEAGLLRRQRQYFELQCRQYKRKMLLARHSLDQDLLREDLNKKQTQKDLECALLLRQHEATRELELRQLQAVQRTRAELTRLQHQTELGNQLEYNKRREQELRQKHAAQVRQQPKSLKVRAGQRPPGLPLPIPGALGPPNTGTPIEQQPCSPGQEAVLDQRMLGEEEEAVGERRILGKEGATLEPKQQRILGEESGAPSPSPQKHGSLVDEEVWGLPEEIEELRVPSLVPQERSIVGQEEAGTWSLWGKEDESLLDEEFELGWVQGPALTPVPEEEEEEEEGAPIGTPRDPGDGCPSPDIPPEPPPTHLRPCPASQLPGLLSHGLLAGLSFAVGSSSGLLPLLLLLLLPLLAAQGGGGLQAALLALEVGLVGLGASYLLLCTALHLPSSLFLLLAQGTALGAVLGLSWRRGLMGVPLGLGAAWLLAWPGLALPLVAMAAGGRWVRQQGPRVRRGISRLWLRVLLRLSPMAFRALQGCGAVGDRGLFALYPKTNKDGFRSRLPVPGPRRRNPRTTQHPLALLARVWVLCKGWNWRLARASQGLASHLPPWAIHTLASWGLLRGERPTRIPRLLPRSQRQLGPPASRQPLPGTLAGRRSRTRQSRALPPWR

[2] = target: Serine/threonine-protein kinase SIK3 (Homo sapiens) (UniProt Q9Y2K2); assay: Inhibition of human recombinant QSK at 500 nM in presence of ATP by radiometric assay relative to control
[3] = target: Serine/threonine-protein kinase WNK1 (Homo sapiens) (UniProt Q9H4A3); assay: Inhibition of human recombinant Wnk1 at 500 nM related to control ULK1
Sequence of Serine/threonine-protein kinase WNK1 (Homo sapiens) (Q9H4A3 whole entry, looked up): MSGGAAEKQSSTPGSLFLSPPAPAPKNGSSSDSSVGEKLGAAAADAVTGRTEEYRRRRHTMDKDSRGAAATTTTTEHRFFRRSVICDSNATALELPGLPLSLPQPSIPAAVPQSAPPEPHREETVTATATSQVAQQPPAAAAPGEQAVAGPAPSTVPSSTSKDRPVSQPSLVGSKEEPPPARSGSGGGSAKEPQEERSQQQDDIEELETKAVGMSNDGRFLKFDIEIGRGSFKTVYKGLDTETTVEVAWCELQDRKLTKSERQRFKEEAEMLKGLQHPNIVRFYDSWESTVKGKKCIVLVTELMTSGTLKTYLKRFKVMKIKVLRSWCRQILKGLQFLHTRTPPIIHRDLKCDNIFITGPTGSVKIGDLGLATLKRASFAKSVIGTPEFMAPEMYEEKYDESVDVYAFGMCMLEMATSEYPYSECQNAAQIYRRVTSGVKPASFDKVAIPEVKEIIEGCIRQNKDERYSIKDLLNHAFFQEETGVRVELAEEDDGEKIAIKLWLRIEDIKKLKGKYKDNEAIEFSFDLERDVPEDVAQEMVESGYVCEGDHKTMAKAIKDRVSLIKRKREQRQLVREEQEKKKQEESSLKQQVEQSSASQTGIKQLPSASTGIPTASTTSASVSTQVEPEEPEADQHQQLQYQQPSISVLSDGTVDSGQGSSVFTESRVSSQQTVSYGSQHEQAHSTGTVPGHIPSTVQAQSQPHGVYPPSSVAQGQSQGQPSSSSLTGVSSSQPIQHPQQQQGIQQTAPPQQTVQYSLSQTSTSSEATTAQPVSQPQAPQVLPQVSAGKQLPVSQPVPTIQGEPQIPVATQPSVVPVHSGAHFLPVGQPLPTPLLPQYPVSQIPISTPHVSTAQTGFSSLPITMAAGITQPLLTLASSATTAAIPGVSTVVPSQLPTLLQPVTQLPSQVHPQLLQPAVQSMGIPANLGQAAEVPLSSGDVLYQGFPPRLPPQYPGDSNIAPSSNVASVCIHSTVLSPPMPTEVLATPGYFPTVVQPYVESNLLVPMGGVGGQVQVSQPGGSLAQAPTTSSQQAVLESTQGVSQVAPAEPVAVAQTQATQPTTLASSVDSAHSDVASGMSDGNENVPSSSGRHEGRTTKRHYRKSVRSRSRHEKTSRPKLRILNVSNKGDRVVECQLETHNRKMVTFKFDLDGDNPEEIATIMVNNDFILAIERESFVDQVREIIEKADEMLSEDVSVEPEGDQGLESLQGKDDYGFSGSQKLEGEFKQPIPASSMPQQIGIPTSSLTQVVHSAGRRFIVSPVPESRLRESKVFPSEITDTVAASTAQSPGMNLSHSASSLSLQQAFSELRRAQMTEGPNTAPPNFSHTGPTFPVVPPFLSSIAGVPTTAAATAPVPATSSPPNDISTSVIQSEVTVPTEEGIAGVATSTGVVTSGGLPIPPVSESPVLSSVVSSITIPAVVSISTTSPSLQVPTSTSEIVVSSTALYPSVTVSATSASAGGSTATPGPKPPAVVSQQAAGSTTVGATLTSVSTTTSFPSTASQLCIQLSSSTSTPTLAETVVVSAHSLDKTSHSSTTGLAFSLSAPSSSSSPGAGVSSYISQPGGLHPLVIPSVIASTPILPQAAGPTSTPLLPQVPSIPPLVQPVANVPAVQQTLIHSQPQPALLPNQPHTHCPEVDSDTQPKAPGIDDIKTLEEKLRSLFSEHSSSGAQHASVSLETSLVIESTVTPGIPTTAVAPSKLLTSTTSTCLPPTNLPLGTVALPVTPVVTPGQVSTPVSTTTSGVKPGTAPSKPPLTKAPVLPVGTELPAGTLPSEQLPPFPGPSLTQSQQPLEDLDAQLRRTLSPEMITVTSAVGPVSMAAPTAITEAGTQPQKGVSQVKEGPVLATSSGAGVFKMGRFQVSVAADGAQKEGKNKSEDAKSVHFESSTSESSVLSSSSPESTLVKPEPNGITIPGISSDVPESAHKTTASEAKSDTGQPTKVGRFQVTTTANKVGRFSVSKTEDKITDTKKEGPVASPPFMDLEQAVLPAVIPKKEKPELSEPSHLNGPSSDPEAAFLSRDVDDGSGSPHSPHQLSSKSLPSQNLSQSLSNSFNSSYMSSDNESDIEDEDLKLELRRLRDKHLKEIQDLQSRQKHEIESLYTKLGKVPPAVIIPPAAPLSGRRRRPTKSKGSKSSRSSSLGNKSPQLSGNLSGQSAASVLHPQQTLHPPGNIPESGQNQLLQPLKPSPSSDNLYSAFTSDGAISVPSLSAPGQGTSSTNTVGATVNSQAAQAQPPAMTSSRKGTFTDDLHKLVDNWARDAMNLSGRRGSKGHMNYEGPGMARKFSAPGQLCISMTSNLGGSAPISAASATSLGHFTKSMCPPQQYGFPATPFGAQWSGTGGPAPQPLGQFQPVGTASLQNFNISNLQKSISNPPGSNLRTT

[4] = target: Mitogen-activated protein kinase kinase kinase 20 (Homo sapiens) (UniProt Q9NYL2); assay: Inhibition of human recombinant ZAK at 500 nM related to control ULK1
Sequence of Mitogen-activated protein kinase kinase kinase 20 (Homo sapiens) (Q9NYL2 2-800 limits assumed): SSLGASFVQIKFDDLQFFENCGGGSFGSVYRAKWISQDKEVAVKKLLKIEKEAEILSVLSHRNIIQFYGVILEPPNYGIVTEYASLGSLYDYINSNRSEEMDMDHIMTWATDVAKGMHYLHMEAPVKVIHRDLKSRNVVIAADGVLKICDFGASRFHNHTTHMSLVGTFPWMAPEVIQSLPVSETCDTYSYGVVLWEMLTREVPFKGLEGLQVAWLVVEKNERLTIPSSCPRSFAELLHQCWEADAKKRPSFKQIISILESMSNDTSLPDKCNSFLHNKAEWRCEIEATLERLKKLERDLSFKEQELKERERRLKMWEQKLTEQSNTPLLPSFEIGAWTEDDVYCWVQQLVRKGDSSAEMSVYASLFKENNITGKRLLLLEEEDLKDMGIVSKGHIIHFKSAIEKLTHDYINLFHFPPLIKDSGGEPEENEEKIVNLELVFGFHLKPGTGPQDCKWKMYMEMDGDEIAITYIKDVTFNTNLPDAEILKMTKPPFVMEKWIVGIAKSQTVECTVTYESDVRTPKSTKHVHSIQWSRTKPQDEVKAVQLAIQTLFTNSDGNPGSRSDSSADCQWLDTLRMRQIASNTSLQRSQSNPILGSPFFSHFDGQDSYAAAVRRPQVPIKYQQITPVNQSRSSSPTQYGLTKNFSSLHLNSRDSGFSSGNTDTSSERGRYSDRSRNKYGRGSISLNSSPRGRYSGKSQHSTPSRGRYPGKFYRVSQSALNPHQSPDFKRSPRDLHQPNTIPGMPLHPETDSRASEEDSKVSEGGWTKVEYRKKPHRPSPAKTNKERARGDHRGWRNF

[5] = target: Receptor tyrosine-protein kinase erbB-4 (Homo sapiens) (UniProt Q15303); assay: Inhibition of human recombinant ErbB4 at 500 nM in presence of ATP by radiometric assay relative to control
[6] = target: T2, Inhibitor of nuclear factor kappa-B kinase subunit alpha (Homo sapiens) (UniProt O15111); assay: Inhibition of human recombinant IKKa at 15 nM related to control ULK1
T2 sequence (whole entry): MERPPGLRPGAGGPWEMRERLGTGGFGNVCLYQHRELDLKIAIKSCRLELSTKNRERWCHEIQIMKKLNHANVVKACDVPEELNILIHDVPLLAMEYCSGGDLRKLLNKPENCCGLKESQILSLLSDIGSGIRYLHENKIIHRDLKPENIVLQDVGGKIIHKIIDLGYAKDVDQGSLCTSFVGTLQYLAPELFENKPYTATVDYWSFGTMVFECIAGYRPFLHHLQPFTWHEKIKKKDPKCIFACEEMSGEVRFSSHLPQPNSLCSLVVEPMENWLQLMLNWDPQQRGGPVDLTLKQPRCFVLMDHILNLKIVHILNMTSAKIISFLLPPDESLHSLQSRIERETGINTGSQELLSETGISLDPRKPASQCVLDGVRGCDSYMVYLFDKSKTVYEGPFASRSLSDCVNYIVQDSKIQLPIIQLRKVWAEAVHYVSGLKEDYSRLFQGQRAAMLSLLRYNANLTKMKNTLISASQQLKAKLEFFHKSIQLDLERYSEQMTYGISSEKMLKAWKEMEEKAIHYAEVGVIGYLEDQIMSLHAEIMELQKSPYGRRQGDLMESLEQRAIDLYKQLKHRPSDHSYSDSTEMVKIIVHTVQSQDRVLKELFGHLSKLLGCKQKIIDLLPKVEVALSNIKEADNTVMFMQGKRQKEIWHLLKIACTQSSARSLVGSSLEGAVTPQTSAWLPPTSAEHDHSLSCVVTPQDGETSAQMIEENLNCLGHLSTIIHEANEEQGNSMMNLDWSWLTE

[7] = target: Dual specificity mitogen-activated protein kinase kinase 1 (Homo sapiens) (UniProt Q02750); assay: Inhibition of human recombinant MAP2K1 at 15 nM related to control ULK1
Sequence of Dual specificity mitogen-activated protein kinase kinase 1 (Homo sapiens) (Q02750 whole entry): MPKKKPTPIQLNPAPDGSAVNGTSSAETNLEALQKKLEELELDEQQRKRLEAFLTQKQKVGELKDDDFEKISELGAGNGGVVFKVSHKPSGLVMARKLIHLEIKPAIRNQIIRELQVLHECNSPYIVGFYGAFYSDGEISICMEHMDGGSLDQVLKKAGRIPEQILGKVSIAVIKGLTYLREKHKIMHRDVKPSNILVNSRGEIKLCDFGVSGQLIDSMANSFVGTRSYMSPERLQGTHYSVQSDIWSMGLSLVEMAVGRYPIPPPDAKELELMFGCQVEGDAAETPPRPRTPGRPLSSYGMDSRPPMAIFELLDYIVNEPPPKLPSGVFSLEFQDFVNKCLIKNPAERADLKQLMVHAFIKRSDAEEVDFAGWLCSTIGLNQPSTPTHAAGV

[8] = target: Serine/threonine-protein kinase pim-2 (Homo sapiens) (UniProt Q9P1W9); assay: Inhibition of human recombinant PIM2 at 15 nM in presence of ATP by radiometric assay relative to control
Sequence of Serine/threonine-protein kinase pim-2 (Homo sapiens) (Q9P1W9 whole entry, looked up): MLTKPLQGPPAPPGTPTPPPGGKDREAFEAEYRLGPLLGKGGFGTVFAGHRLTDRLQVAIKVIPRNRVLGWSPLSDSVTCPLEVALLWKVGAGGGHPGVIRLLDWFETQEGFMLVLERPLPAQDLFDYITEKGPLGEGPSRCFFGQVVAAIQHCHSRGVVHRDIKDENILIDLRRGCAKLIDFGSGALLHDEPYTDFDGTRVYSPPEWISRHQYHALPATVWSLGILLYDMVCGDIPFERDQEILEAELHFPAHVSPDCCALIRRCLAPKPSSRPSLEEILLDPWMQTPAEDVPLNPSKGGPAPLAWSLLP

[9] = target: Death-associated protein kinase 2 (Homo sapiens) (UniProt Q9UIK4); assay: Inhibition of human recombinant DAPK2 at 15 nM related to control ULK1
Sequence of Death-associated protein kinase 2 (Homo sapiens) (Q9UIK4 whole entry, looked up): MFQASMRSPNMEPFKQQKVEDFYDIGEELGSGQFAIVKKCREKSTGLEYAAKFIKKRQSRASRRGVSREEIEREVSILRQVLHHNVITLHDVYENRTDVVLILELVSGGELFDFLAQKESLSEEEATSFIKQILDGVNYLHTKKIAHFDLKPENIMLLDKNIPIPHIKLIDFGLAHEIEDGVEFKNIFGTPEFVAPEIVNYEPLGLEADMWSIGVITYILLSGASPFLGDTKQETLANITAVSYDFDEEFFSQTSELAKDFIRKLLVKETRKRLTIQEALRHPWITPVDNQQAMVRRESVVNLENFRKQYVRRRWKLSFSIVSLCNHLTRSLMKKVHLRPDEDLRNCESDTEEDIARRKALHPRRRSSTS

Row | inhibition [1] [%] | inhibition [2] [%] | fold change (FC) [3] | fold change (FC) [4] | inhibition [5] [%] | fold change (FC) [6] | fold change (FC) [7] | inhibition [8] [%] | SMILES | fold change (FC) [9]
1 | 0 | 8 | 0 | 0.01 | 0 | – | – | – | CNC(=O)c1ccccc1Oc1nc(Nc2cc(OC)c(OC)c(OC)c2)ncc1Br | –
2 | – | – | – | – | – | 0.01 | 0.08 | 0 | CC(C)[C@H](NC(=O)c1cc(-c2cnn3cc(-c4ccc(OCCN5CCCCC5)cc4)cnc23)cs1)C(F)(F)F | 0.07
